Patent publication US6703399B2, “Halo-alkyl esters of camptothecins and methods of treating cancer using these compounds” (priority 2002, dated 2004)

Key:
[1] = Plasma CPT after intrastomach administration in mice, closed lactone share of AUC; format: in vivo
[2] = Plasma CPT after oral administration in humans, closed lactone share of AUC; format: in vivo
[3] = Pharmacokinetics of CPT in human plasma, lactone half-life; format: in vitro ADME
[4] = Plasma levels of 9NC after i.s. administration, share in closed lactone form; format: in vivo; details: species not given, mice from b8 and b10
human tumor xenografts [5] = details: in mice; cited from earlier work
[6] = Plasma levels of 9NC after oral administration to Phase I clinical trial patients, share in closed lactone form; format: in vivo, humans; details: on average
human tumor xenografts [7] = experiment: Antitumor activity against human tumor xenografts in mice; format: in vivo
Text: (§1) Clearly, there is a pressing need for a modification which will slow and delay the lactone ring opening upon its entrance into the blood circulation.

tumors = experiment: Clinical responses in Phase I patients; format: in vivo; details: in humans
Text: as §1

[8] = water-soluble sodium carboxylate salt; cited from earlier work

In the case of 20(S)-camptothecin [CPT], the “closed lactone form, share of the area under the curve” value [1] was “approximately 54%”, the “closed lactone ring form, share of the area under the curve” value [2] was “about 0.4%” and the “half-life time of the drug with lactone intact” value [3] was 30 min.
For CC[C@@]1(O)C(=O)OCc2c1cc1n(c2=O)Cc2cc3c([N+](=O)[O-])cccc3nc2-1 [Example 9NC, 9-nitrocamptothecin], the “share of drug present in the plasma in the closed lactone form” value [4] is given as 57%, the “potency relative to CPT against human tumor xenografts” value (human tumor xenografts [5]) is given as 2-3 times and the “share of drug present in plasma in the closed lactone form” value [6] is given as ~3%. The complete tumor regressions (human tumor xenografts [7]) was 32/32 and the complete tumor regressions (tumors) was 2/32.
For CC[C@@](O)(C(=O)[O-])c1cc2n(c(=O)c1CO)Cc1cc3ccccc3nc1-2.[Na+] [sodium carboxylate salt], the “anticancer activity in clinical evaluation” value [8] is listed as “devoid of anticancer activity” and the “toxicity in clinical evaluation” value [8] is listed as “severe toxicity”.
